Experimental data from patent publication US9232792B2, “Method for promoting plant growth” (SUMITOMO CHEMICAL COMPANY, LIMITED, priority 2011, dated 2016).

Assays:
Wheat (cultivar: Apogee) = experiment: Test Example 6: reduction of high-temperature stress by spraying treatment of wheat; type: in vivo; settings: 36° C./32° C. for 7 days, 90 days after stress
Method: Five wheat seeds were sown in the culture soil (AISAI) in each plastic pot and cultivated for 28 days in an artificial weather control room under the conditions of a temperature of 18° C. in daytime/15° C. in night, and an illuminance of 7,000 lux. Before the stress test, 3 individuals per pot were removed.
To 0.5 mg of the present compound 1 were added 120 mg of a mixture (weight ratio 1:1) of white carbon and ammonium polyoxyethylene alkyl ether sulfate and 300 μl of water. The mixture was finely ground by a wet grinding method to obtain a flowable formulation of the present compound 1. This flowable formulation was diluted with 50 ml or 500 ml of water. The mixture was diluted with RINO (manufactured by NIHON NOHYAKU CO., LTD) as a spreading agent to 5,000-fold dilution to obtain a spray solution containing 10 ppm or 1 ppm of the present compound 1. A sufficient amount of the spray solution was applied to the wheat seedlings by using an automatic spraying machine.
In addition, a flowable formulation without the present compound 1 was prepared and then sprayed. This is called as a non-treated group.
The tested plants at 28 days after the sowing were cultivated for 7 days in an artificial weather control room under the conditions of a temperature of 36° C. in daytime/32° C. in night, a humidity of 50% in daytime/60% in night, an illuminance of 7,000 lux, and a day length of 12 hours.
After the high-temperature stress treatment, the plants were cultivated for 4 days in an artificial weather control room under the conditions of a temperature of 18° C. in daytime/15° C. in night, and a illuminance of 7,000 lux. Then, 90 days after the high-temperature stress treatment, the number and the weight of seeds in ears of the tested plants in 7 or 8 pots were measured, and the average values of the number and the weight of seeds per one ear were calculated. As a result, the number and the weight of seeds in the wheat plants treated with the present compound 1 at a concentration of 1 ppm or 10 ppm were much larger those in the non-treated group, in which the wheat plants were not treated with the present compound 1.

[1] = tested on: Rice (cultivar: Nipponbare); experiment: Test Example 2: reduction of low-temperature stress by immersion treatment of rice; type: in vivo; settings: 1 ppm in hydroponic solution; 4° C. for 5 days, then 4 days at 25° C.
Method: Rice (cultivar: Nipponbare)
A necessary amount of rice seeds was immersed in an aqueous solution of 1,000 ppm of Benlate, and incubated at 30° C. overnight under dark conditions. The aqueous solution of Benlate was replaced with distilled water, and the seeds were further incubated at 30° C. overnight under dark conditions to stimulate the germination of the seeds. A filter paper was placed on the holes of a plug tray having 406 holes, and the rice seeds obtained after the stimulation of germination were sown on the filter paper. To the rice seeds was added a kimura B solution for hydroponics (see Plant Science 119: 39-47 (1996)) at ½ concentration, and cultivated for 5 days in an artificial weather control room under the following conditions: • temperature: daytime 28° C./night 23° C., humidity: 70%, illuminance: 8,500 lux, and day length: 12 hours. <Compound Treatment> […]
Four (4) days after the cultivation, the overground part of each rice plant in the treated group was taken a photograph, and the area of a green portion in the obtained image data was measured with image analysis software Win ROOF (manufactured by MITANI CORPORATION) to determine the green area of the overground part of the plant. In the treated group, the experiment was performed in duplication and the average value of the green area per individual was calculated. […]

O=C(O)c1cc2cc(C(F)(F)F)ccc2s1 [The present compound 1, 5-(trifluoromethyl)benzo[b]thiophene-2-carboxylic acid]
much larger: number of seeds per ear vs non-treated group (Wheat (cultivar: Apogee); spray 1 ppm) | weight of seeds per ear vs non-treated group (Wheat (cultivar: Apogee); spray 1 ppm) | number of seeds per ear vs non-treated group (Wheat (cultivar: Apogee); spray 10 ppm) | weight of seeds per ear vs non-treated group (Wheat (cultivar: Apogee); spray 10 ppm) | green area of the overground part of the plant vs non-treated group [1]
